Reference: PubChem BioAssay (NCI)
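Step 1: Grow cells in 96-well plates. Step 2: Expose to compound for 48 hours at 5 concentrations. Step 3: Interpolate endpoints linearly; if unreached, use highest concentration. The concentration for full growth arrest is given as TGI.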

Tests used:
Assay in all cases: NCI-60 cell line screen, 48 h
DU-145 prostate = tested on: DU-145 prostate
OVCAR-8 ovarian = tested on: OVCAR-8 ovarian
KM12 colon = tested on: KM12 colon
UO-31 renal = tested on: UO-31 renal
NCI-H460 lung = tested on: NCI-H460 lung
TK-10 renal = tested on: TK-10 renal
SK-OV-3 ovarian = tested on: SK-OV-3 ovarian
SF-295 CNS = tested on: SF-295 CNS
SF-268 CNS = tested on: SF-268 CNS
UACC-257 melanoma = tested on: UACC-257 melanoma
EKVX NSCLC = tested on: EKVX NSCLC
M14 melanoma = tested on: M14 melanoma
T-47D breast = tested on: T-47D breast
CCRF-CEM leukemia = tested on: CCRF-CEM leukemia
MOLT-4 leukemia = tested on: MOLT-4 leukemia
NCI/ADR-RES ovarian = tested on: NCI/ADR-RES ovarian
UACC-62 melanoma = tested on: UACC-62 melanoma
IGROV1 ovarian = tested on: IGROV1 ovarian
PC-3 prostate = tested on: PC-3 prostate
OVCAR-5 ovarian = tested on: OVCAR-5 ovarian
HCT-116 colon = tested on: HCT-116 colon
NCI-H23 lung = tested on: NCI-H23 lung
K-562 leukemia = tested on: K-562 leukemia
HL-60(TB) leukemia = tested on: HL-60(TB) leukemia
SNB-75 CNS = tested on: SNB-75 CNS
HOP-62 NSCLC = tested on: HOP-62 NSCLC
ACHN renal = tested on: ACHN renal
RXF 393 renal = tested on: RXF 393 renal
MDA-MB-435 = tested on: MDA-MB-435
CAKI-1 renal = tested on: CAKI-1 renal
MDA-MB-231 breast = tested on: MDA-MB-231 breast
786-0 renal = tested on: 786-0 renal
BT-549 breast = tested on: BT-549 breast
COLO 205 colon = tested on: COLO 205 colon
MDA-N = tested on: MDA-N
OVCAR-4 ovarian = tested on: OVCAR-4 ovarian
A549 NSCLC = tested on: A549 NSCLC
SR leukemia = tested on: SR leukemia
OVCAR-3 ovarian = tested on: OVCAR-3 ovarian
HS 578T breast = tested on: HS 578T breast
LOX IMVI melanoma = tested on: LOX IMVI melanoma
SK-MEL-2 melanoma = tested on: SK-MEL-2 melanoma
HCT-15 colon = tested on: HCT-15 colon
MCF7 breast = tested on: MCF7 breast
SNB-19 CNS = tested on: SNB-19 CNS
SK-MEL-5 melanoma = tested on: SK-MEL-5 melanoma
HCC-2998 colon = tested on: HCC-2998 colon
HOP-92 NSCLC = tested on: HOP-92 NSCLC
SW-620 colon = tested on: SW-620 colon
RPMI-8226 leukemia = tested on: RPMI-8226 leukemia
SF-539 CNS = tested on: SF-539 CNS
U251 CNS = tested on: U251 CNS
HT29 colon = tested on: HT29 colon
SK-MEL-28 melanoma = tested on: SK-MEL-28 melanoma
SN12C renal = tested on: SN12C renal
A498 renal = tested on: A498 renal

## C=C(C)[C@@H]1CC[C@]2(C(=O)O)CC[C@]3(C)[C@H](CCC4[C@@]5(C)CC[C@H](C(=O)/C=C/c6ccc(O)c(O)c6)C(C)(C)[C@@H]5CC[C@]43C)[C@@H]12 (stereo partly specified)
DU-145 prostate
  TGI: 28.1 µM
OVCAR-8 ovarian
  TGI: 54.5 µM
KM12 colon
  TGI: 28.2 µM
UO-31 renal
  TGI: 12.9 µM
NCI-H460 lung
  TGI: 16.2 µM
TK-10 renal
  TGI: 39.9 µM
SK-OV-3 ovarian
  TGI: 19.4 µM
SF-295 CNS
  TGI: 18.4 µM
SF-268 CNS
  TGI: > 100 µM
UACC-257 melanoma
  TGI: 11 µM
EKVX NSCLC
  TGI: > 100 µM
M14 melanoma
  TGI: 14.7 µM
T-47D breast
  TGI: 95.7 µM
CCRF-CEM leukemia
  TGI: > 100 µM
MOLT-4 leukemia
  TGI: > 100 µM
NCI/ADR-RES ovarian
  TGI: > 100 µM
UACC-62 melanoma
  TGI: 27.6 µM
IGROV1 ovarian
  TGI: > 100 µM
PC-3 prostate
  TGI: 21.8 µM
OVCAR-5 ovarian
  TGI: 26.7 µM
HCT-116 colon
  TGI: > 100 µM
NCI-H23 lung
  TGI: 9.62 µM
K-562 leukemia
  TGI: > 100 µM
HL-60(TB) leukemia
  TGI: > 100 µM
SNB-75 CNS
  TGI: > 100 µM
HOP-62 NSCLC
  TGI: 17 µM
ACHN renal
  TGI: 6.51 µM
RXF 393 renal
  TGI: > 100 µM
MDA-MB-435
  TGI: 16.7 µM
CAKI-1 renal
  TGI: 16.8 µM
MDA-MB-231 breast
  TGI: 35.7 µM
786-0 renal
  TGI: 30.2 µM
BT-549 breast
  TGI: > 100 µM
COLO 205 colon
  TGI: 13.8 µM
MDA-N
  TGI: 15.9 µM
OVCAR-4 ovarian
  TGI: > 100 µM
A549 NSCLC
  TGI: > 100 µM
SR leukemia
  TGI: > 100 µM
OVCAR-3 ovarian
  TGI: 22.5 µM
HS 578T breast
  TGI: 46.2 µM
LOX IMVI melanoma
  TGI: > 100 µM
SK-MEL-2 melanoma
  TGI: 38 µM
HCT-15 colon
  TGI: 26.8 µM
MCF7 breast
  TGI: 14.9 µM
SNB-19 CNS
  TGI: > 100 µM
SK-MEL-5 melanoma
  TGI: 18.8 µM
HCC-2998 colon
  TGI: 7 µM

## CN(C)c1ccc(/C=C2\N=C(c3ccccc3)N(c3ccc4c(c3)Sc3cc(N5C(=O)/C(=C/c6ccc(N(C)C)cc6)N=C5c5ccccc5)ccc3N4)C2=O)cc1
DU-145 prostate
  TGI: 76.1 µM
OVCAR-8 ovarian
  TGI: 34.4 µM
KM12 colon
  TGI: > 100 µM
UO-31 renal
  TGI: 34.8 µM
NCI-H460 lung
  TGI: 62.3 µM
TK-10 renal
  TGI: 31.1 µM
HOP-92 NSCLC
  TGI: 35.1 µM
SK-OV-3 ovarian
  TGI: 26.7 µM
SF-295 CNS
  TGI: 36 µM
SF-268 CNS
  TGI: 37.3 µM
UACC-257 melanoma
  TGI: 38.2 µM
EKVX NSCLC
  TGI: 74.8 µM
M14 melanoma
  TGI: 40.7 µM
T-47D breast
  TGI: 48 µM
CCRF-CEM leukemia
  TGI: 20.1 µM
MOLT-4 leukemia
  TGI: > 100 µM
NCI/ADR-RES ovarian
  TGI: 89.2 µM
UACC-62 melanoma
  TGI: 33.7 µM
SW-620 colon
  TGI: > 100 µM
IGROV1 ovarian
  TGI: 32 µM
PC-3 prostate
  TGI: 34.4 µM
OVCAR-5 ovarian
  TGI: 40.8 µM
HCT-116 colon
  TGI: 67.6 µM
K-562 leukemia
  TGI: 96.4 µM
HL-60(TB) leukemia
  TGI: 61.9 µM
SNB-75 CNS
  TGI: 27.4 µM
RPMI-8226 leukemia
  TGI: 51.4 µM
HOP-62 NSCLC
  TGI: 32.1 µM
SF-539 CNS
  TGI: 32.8 µM
ACHN renal
  TGI: 30.4 µM
U251 CNS
  TGI: 29 µM
MDA-MB-435
  TGI: 58 µM
CAKI-1 renal
  TGI: 37.4 µM
MDA-MB-231 breast
  TGI: 41.5 µM
HT29 colon
  TGI: > 100 µM
786-0 renal
  TGI: 45.6 µM
BT-549 breast
  TGI: 66.6 µM
COLO 205 colon
  TGI: > 100 µM
MDA-N
  TGI: > 100 µM
SK-MEL-28 melanoma
  TGI: > 100 µM
OVCAR-4 ovarian
  TGI: 61 µM
A549 NSCLC
  TGI: 52.2 µM
SN12C renal
  TGI: 38.9 µM
SR leukemia
  TGI: > 100 µM
OVCAR-3 ovarian
  TGI: 25.8 µM
HS 578T breast
  TGI: 72.7 µM
LOX IMVI melanoma
  TGI: 40.9 µM
SK-MEL-2 melanoma
  TGI: 38.3 µM
A498 renal
  TGI: 31.8 µM
HCT-15 colon
  TGI: > 100 µM
MCF7 breast
  TGI: 32.4 µM
SNB-19 CNS
  TGI: 31.3 µM
SK-MEL-5 melanoma
  TGI: 32.1 µM
HCC-2998 colon
  TGI: 37.9 µM
